Measurements: patent publication US4426519A, “7-(2-Amino-4-thiazolyl)-acetamido cephalosporanic acids” (Roussel Uclaf, priority 1979, dated 1984)
Where a name gives a salt, the structure may show the parent alone. Read-outs that look alike come from different tables or passages of the source.

Legend:
Assay in all cases: MIC, dilution in liquid medium
Type in all cases: cell-based
[1] = tested on: Staphylococcus aureus UC 1 128 Pen-resistant
Experimental: (§1) The method used was a dilution of a liquid medium where a series of tubes received the same quantity of a sterile nutritive media and increasing doses of the test compounds were placed therein. Then each tube was seeded with a bacterial strain and was incubated for 24 to 48 hours at 37° C. in an oven. The increasing inhibition was determined by transillulumination to determine the minimum inhibiting concentration (MIC in μg/ml) and the results are reported in the following Tables.

[2] = tested on: Bacillus subtilis ATCC 6 633
Experimental: as §1

[3] = tested on: Escherichia Coli Exp. TO26 B6
Experimental: as §1

[4] = tested on: Enterobacter cloacae 681
Experimental: as §1

[5] = tested on: Escherichia Coli sensitive Tetracycline ATCC 9 637
Experimental: as §1

[6] = tested on: Staphylococcus aureus exp.n°54 146
Experimental: as §1

[7] = tested on: Klebsiella pneumoniae 2 536 Resistant Gentamycine
Experimental: as §1

[8] = tested on: Pseudomonas 3935 Exp.Sensible Gentamycine
Experimental: as §1

[9] = tested on: Proteus mirabilis (indol-) A 235
Experimental: as §1

[10] = tested on: Providencia Du 48
Experimental: as §1

[11] = tested on: Serratia Resistant Gentamycine 2 532
Experimental: as §1

[12] = tested on: Escherichia Coli Resistant Tetracycline ATCC 11 303
Experimental: as §1

[13] = tested on: Salmonella typhimurium 420; conditions: Salmonella enterica
Experimental: as §1

[14] = tested on: Streptococcus pyogenes A 561
Experimental: as §1

[15] = tested on: Klebsiella pneumoniae Exp. 52 145
Experimental: as §1

[16] = tested on: Escherichia Coli Resistant Gentamycine, Tobramycine R 55 123 D
Experimental: as §1

[17] = tested on: Staphylococcus aureus ATCC 6 538 Pen Sensitive
Experimental: as §1

Cn1nnnc1SCC1=C(C(=O)O)N2C(=O)C(NC(=O)/C(=N\OCCSC(=N)N)c3csc(N)n3)C2SC1 (stereo not drawn) [Example 4, Internal salt of the syn isomer of 3-[(1-methyl-1H-tetrazol-5-yl)-thiomethyl]-7-[2-(2-amino-4-thiazolyl)-2-(2-aminoiminomethylthioethoxyimino)-acetamido]-ceph-3-eme-4-carboxylic acid]
MIC ([1]; UC1, 24 h): 2 µg/mL | MIC ([1]; UC1, 48 h): 2 µg/mL | MIC ([2]; ATCC6, 24 h, read-out: MIC): 0.5 µg/mL | MIC ([2]; ATCC6, 48 h): 2 µg/mL | MIC ([3]; 24 h): 1 µg/mL | MIC ([3]; 48 h): 1 µg/mL | MIC ([4]; Enterobacter cloacae, 681, 24 h): 3 µg/mL | MIC ([4]; Enterobacter cloacae, 681, 48 h): 3 µg/mL | MIC ([5]; ATCC9, 24 h): 2 µg/mL | MIC ([5]; ATCC9, 48 h): 2 µg/mL | MIC ([6]; 24 h): 2 µg/mL | MIC ([6]; 48 h): 2 µg/mL | MIC ([7]; 24 h): 5 µg/mL | MIC ([7]; 48 h): 5 µg/mL | MIC ([8]; 24 h): 10 µg/mL | MIC ([8]; 48 h): 20 µg/mL | MIC ([9]; 24 h): 0.2 µg/mL | MIC ([9]; 48 h): 0.5 µg/mL | MIC ([10]; DU48, 24 h): 5 µg/mL | MIC ([10]; DU48, 48 h, read-out: MIC): 10 µg/mL | MIC ([11]; 24 h): 1 µg/mL | MIC ([11]; 48 h): 1 µg/mL | MIC ([12]; ATCC11, 24 h): 0.2 µg/mL | MIC ([12]; ATCC11, 48 h): 0.2 µg/mL | MIC ([13]; 24 h): 2 µg/mL | MIC ([13]; 48 h): 2 µg/mL | MIC ([14]; A561, 24 h): 0.05 µg/mL | MIC ([14]; A561, 48 h): 0.05 µg/mL | MIC ([15]; EXP.52145, 24 h): 1 µg/mL | MIC ([15]; EXP.52145, 48 h): 1 µg/mL | MIC ([16]; 24 h): 1 µg/mL | MIC ([16]; 48 h): 1 µg/mL | MIC ([17]; ATCC6, 24 h): 1 µg/mL | MIC ([17]; ATCC6, 48 h): 2 µg/mL

CC(=O)OCC1=C(C(=O)O)N2C(=O)C(NC(=O)/C(=N\OCCSC(=N)NN)c3csc(N)n3)C2SC1 (stereo not drawn) [Example 8, Internal salt of syn isomer of 3-acetoxymethyl-7-[2-(2-amino-4-thiazolyl)-2-(2-iminohydrazinomethylthioethoxyimino)acetamido]-ceph-3-eme-4-carboxylic acid]
MIC ([1]; UC1, 24 h): 2 µg/mL | MIC ([1]; UC1, 48 h): 2 µg/mL | MIC ([2]; ATCC6, 24 h): 1 µg/mL | MIC ([2]; ATCC6, 48 h): 3 µg/mL | MIC ([3]; 24 h): 1 µg/mL | MIC ([3]; 48 h): 1 µg/mL | MIC ([5]; ATCC9, 24 h): 2 µg/mL | MIC ([5]; ATCC9, 48 h): 2 µg/mL | MIC ([6]; 24 h): 1 µg/mL | MIC ([6]; 48 h): 2 µg/mL | MIC ([7]; 24 h): 5 µg/mL | MIC ([7]; 48 h, read-out: MIC): 10 µg/mL | MIC ([9]; 24 h): 0.2 µg/mL | MIC ([9]; 48 h): 0.2 µg/mL | MIC ([11]; 24 h): 1 µg/mL | MIC ([11]; 48 h): 2 µg/mL | MIC ([12]; ATCC11, 24 h): 0.5 µg/mL | MIC ([12]; ATCC11, 48 h): 0.5 µg/mL | MIC ([13]; 24 h): 1 µg/mL | MIC ([13]; 48 h): 2 µg/mL | MIC ([14]; A561, 24 h): 0.02 µg/mL | MIC ([14]; A561, 48 h): 0.05 µg/mL | MIC ([15]; EXP.52145, 24 h): 1 µg/mL | MIC ([15]; EXP.52145, 48 h): 1 µg/mL | MIC ([16]; 24 h): 1 µg/mL | MIC ([16]; 48 h): 1 µg/mL | MIC ([17]; ATCC6, 24 h): 1 µg/mL | MIC ([17]; ATCC6, 48 h): 2 µg/mL

Cc1nnc(SCC2=C(C(=O)O)N3C(=O)C(NC(=O)/C(=N\OCCSC(=N)N)c4csc(N)n4)C3SC2)s1 (stereo not drawn) [Example 6, Internal salt of syn isomer of 3-[(2-methyl-1,3,4-thiadiazol-5-yl)-thiomethyl]-7-[2-(2-amino-4-thiazolyl)-2-(2-aminoiminomethylthioethoxyimino)-acetamido]-ceph-3-eme-4-carboxylic acid]
MIC ([1]; UC1, 24 h): 2 µg/mL | MIC ([1]; UC1, 48 h): 2 µg/mL | MIC ([2]; ATCC6, 24 h, read-out: MIC): 1 µg/mL | MIC ([2]; ATCC6, 48 h): 2 µg/mL | MIC ([3]; 24 h): 2 µg/mL | MIC ([3]; 48 h): 2 µg/mL | MIC ([4]; Enterobacter cloacae, 681, 24 h, read-out: MIC): 10 µg/mL | MIC ([4]; Enterobacter cloacae, 681, 48 h, read-out: MIC): 10 µg/mL | MIC ([5]; ATCC9, 24 h, read-out: MIC): 5 µg/mL | MIC ([5]; ATCC9, 48 h): 5 µg/mL | MIC ([6]; 24 h): 2 µg/mL | MIC ([6]; 48 h): 2 µg/mL | MIC ([7]; 24 h, read-out: MIC): 5 µg/mL | MIC ([7]; 48 h): 5 µg/mL | MIC ([9]; 24 h): 1 µg/mL | MIC ([9]; 48 h): 1 µg/mL | MIC ([11]; 24 h): 2 µg/mL | MIC ([11]; 48 h, read-out: MIC): 3 µg/mL | MIC ([12]; ATCC11, 24 h): 0.1 µg/mL | MIC ([12]; ATCC11, 48 h): 0.1 µg/mL | MIC ([13]; 24 h): 2 µg/mL | MIC ([13]; 48 h, read-out: MIC): 3 µg/mL | MIC ([14]; A561, 24 h): 0.05 µg/mL | MIC ([14]; A561, 48 h): 0.05 µg/mL | MIC ([15]; EXP.52145, 24 h, read-out: MIC): 1 µg/mL | MIC ([15]; EXP.52145, 48 h, read-out: MIC): 1 µg/mL | MIC ([16]; 24 h, read-out: MIC): 1 µg/mL | MIC ([16]; 48 h, read-out: MIC): 1 µg/mL | MIC ([17]; ATCC6, 24 h, read-out: MIC): 1 µg/mL | MIC ([17]; ATCC6, 48 h): 2 µg/mL
